Experimental data taken from PubChem BioAssay (NCI).
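Results reflect a 48-hour exposure of cells in 96-well plates to compound at five concentrations. Here, GI50 denotes the concentration required for 50% inhibition of growth. At the TGI there is no net growth.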

Tests used:
Assay in all cases: growth of human tumour cells (NCI), 48 h
SW-620 colon = test system: SW-620 colon
HT29 colon = test system: HT29 colon
OVCAR-4 ovarian = test system: OVCAR-4 ovarian
SK-OV-3 ovarian = test system: SK-OV-3 ovarian
HCC-2998 colon = test system: HCC-2998 colon
HOP-92 NSCLC = test system: HOP-92 NSCLC
UO-31 renal = test system: UO-31 renal
OVCAR-3 ovarian = test system: OVCAR-3 ovarian
HOP-62 NSCLC = test system: HOP-62 NSCLC
SNB-75 CNS = test system: SNB-75 CNS
HCT-116 colon = test system: HCT-116 colon
OVCAR-8 ovarian = test system: OVCAR-8 ovarian
SK-MEL-2 melanoma = test system: SK-MEL-2 melanoma
EKVX NSCLC = test system: EKVX NSCLC
NCI-H460 lung = test system: NCI-H460 lung
PC-3 prostate = test system: PC-3 prostate
MOLT-4 leukemia = test system: MOLT-4 leukemia
SF-295 CNS = test system: SF-295 CNS
A498 renal = test system: A498 renal
LOX IMVI melanoma = test system: LOX IMVI melanoma
SR leukemia = test system: SR leukemia
NCI-H226 lung = test system: NCI-H226 lung
HL-60(TB) leukemia = test system: HL-60(TB) leukemia
SN12C renal = test system: SN12C renal
SF-539 CNS = test system: SF-539 CNS
SF-268 CNS = test system: SF-268 CNS
A549 NSCLC = test system: A549 NSCLC
KM12 colon = test system: KM12 colon
IGROV1 ovarian = test system: IGROV1 ovarian
COLO 205 colon = test system: COLO 205 colon
K-562 leukemia = test system: K-562 leukemia
NCI-H23 lung = test system: NCI-H23 lung
MDA-MB-231 breast = test system: MDA-MB-231 breast
OVCAR-5 ovarian = test system: OVCAR-5 ovarian
RXF 393 renal = test system: RXF 393 renal
BT-549 breast = test system: BT-549 breast
SK-MEL-28 melanoma = test system: SK-MEL-28 melanoma
UACC-257 melanoma = test system: UACC-257 melanoma
786-0 renal = test system: 786-0 renal
DU-145 prostate = test system: DU-145 prostate
MCF7 breast = test system: MCF7 breast
HS 578T breast = test system: HS 578T breast
ACHN renal = test system: ACHN renal
CCRF-CEM leukemia = test system: CCRF-CEM leukemia
SK-MEL-5 melanoma = test system: SK-MEL-5 melanoma
MDA-MB-435 = test system: MDA-MB-435
NCI/ADR-RES ovarian = test system: NCI/ADR-RES ovarian
TK-10 renal = test system: TK-10 renal
UACC-62 melanoma = test system: UACC-62 melanoma
M14 melanoma = test system: M14 melanoma
RPMI-8226 leukemia = test system: RPMI-8226 leukemia
MALME-3M melanoma = test system: MALME-3M melanoma
U251 CNS = test system: U251 CNS
T-47D breast = test system: T-47D breast
SNB-19 CNS = test system: SNB-19 CNS
CAKI-1 renal = test system: CAKI-1 renal
NCI-H522 lung = test system: NCI-H522 lung
HCT-15 colon = test system: HCT-15 colon

SMILES: Cc1c(-c2c(-c3ccc(F)o3)sc3ncnc(O[C@H](Cc4ccccc4OCc4ccnn4CC(F)(F)F)C(=O)O)c23)ccc(OCCN2CCN(C)CC2)c1Cl
- GI50 (SW-620 colon): 5.88 µM
- TGI (SW-620 colon): 17.2 µM
- GI50 (HT29 colon): 4.54 µM
- TGI (HT29 colon): 9.41 µM
- GI50 (OVCAR-4 ovarian): 4.86 µM
- TGI (OVCAR-4 ovarian): 17.8 µM
- GI50 (SK-OV-3 ovarian): 5.74 µM
- TGI (SK-OV-3 ovarian): 14.8 µM
- GI50 (HCC-2998 colon): 3.48 µM
- TGI (HCC-2998 colon): 7.57 µM
- GI50 (HOP-92 NSCLC): 4.57 µM
- TGI (HOP-92 NSCLC): 9.7 µM
- GI50 (UO-31 renal): 6.25 µM
- TGI (UO-31 renal): 18.6 µM
- GI50 (OVCAR-3 ovarian): 3.82 µM
- TGI (OVCAR-3 ovarian): 7.67 µM
- GI50 (HOP-62 NSCLC): 5.31 µM
- TGI (HOP-62 NSCLC): 14.3 µM
- GI50 (SNB-75 CNS): 1.92 µM
- TGI (SNB-75 CNS): 5.61 µM
- GI50 (HCT-116 colon): 3.9 µM
- TGI (HCT-116 colon): 9.23 µM
- GI50 (OVCAR-8 ovarian): 5.82 µM
- TGI (OVCAR-8 ovarian): 15.5 µM
- GI50 (SK-MEL-2 melanoma): 0.03 µM
- TGI (SK-MEL-2 melanoma): 0.097 µM
- GI50 (EKVX NSCLC): 4.12 µM
- TGI (EKVX NSCLC): 14.2 µM
- GI50 (NCI-H460 lung): 4.17 µM
- TGI (NCI-H460 lung): 10 µM
- GI50 (PC-3 prostate): 3.16 µM
- TGI (PC-3 prostate): 7.28 µM
- GI50 (MOLT-4 leukemia): 0.108 µM
- TGI (MOLT-4 leukemia): 4.71 µM
- GI50 (SF-295 CNS): 3.55 µM
- TGI (SF-295 CNS): 7.55 µM
- GI50 (A498 renal): 3.03 µM
- TGI (A498 renal): 9.6 µM
- GI50 (LOX IMVI melanoma): 3.03 µM
- TGI (LOX IMVI melanoma): 6.8 µM
- GI50 (SR leukemia): 0.162 µM
- TGI (SR leukemia): 2.01 µM
- GI50 (NCI-H226 lung): 5.89 µM
- TGI (NCI-H226 lung): 15.5 µM
- GI50 (HL-60(TB) leukemia): 0.0173 µM
- TGI (HL-60(TB) leukemia): 0.195 µM
- GI50 (SN12C renal): 4.05 µM
- TGI (SN12C renal): 9.62 µM
- GI50 (SF-539 CNS): 2.89 µM
- TGI (SF-539 CNS): 6.27 µM
- GI50 (SF-268 CNS): 4.46 µM
- TGI (SF-268 CNS): 11.4 µM
- GI50 (A549 NSCLC): 13.4 µM
- TGI (A549 NSCLC): 26.9 µM
- GI50 (KM12 colon): 4 µM
- TGI (KM12 colon): 7.99 µM
- GI50 (IGROV1 ovarian): 5.68 µM
- TGI (IGROV1 ovarian): 14.8 µM
- GI50 (COLO 205 colon): 4.29 µM
- TGI (COLO 205 colon): 9.26 µM
- GI50 (K-562 leukemia): 3.71 µM
- TGI (K-562 leukemia): 14.5 µM
- GI50 (NCI-H23 lung): 2.59 µM
- TGI (NCI-H23 lung): 7.6 µM
- GI50 (MDA-MB-231 breast): 3.8 µM
- TGI (MDA-MB-231 breast): 7.84 µM
- GI50 (OVCAR-5 ovarian): 4.81 µM
- TGI (OVCAR-5 ovarian): 14.8 µM
- GI50 (RXF 393 renal): 2.77 µM
- TGI (RXF 393 renal): 6.1 µM
- GI50 (BT-549 breast): 2.13 µM
- TGI (BT-549 breast): 5.65 µM
- GI50 (SK-MEL-28 melanoma): 3.84 µM
- TGI (SK-MEL-28 melanoma): 7.82 µM
- GI50 (UACC-257 melanoma): 5.24 µM
- TGI (UACC-257 melanoma): 12.9 µM
- GI50 (786-0 renal): 3.97 µM
- TGI (786-0 renal): 8.33 µM
- GI50 (DU-145 prostate): 2.33 µM
- TGI (DU-145 prostate): 5.36 µM
- GI50 (MCF7 breast): 0.375 µM
- TGI (MCF7 breast): 4.61 µM
- GI50 (HS 578T breast): 1.53 µM
- TGI (HS 578T breast): 9.42 µM
- GI50 (ACHN renal): 6.46 µM
- TGI (ACHN renal): 19 µM
- GI50 (CCRF-CEM leukemia): 0.318 µM
- TGI (CCRF-CEM leukemia): 9.49 µM
- GI50 (SK-MEL-5 melanoma): 3.13 µM
- TGI (SK-MEL-5 melanoma): 6.25 µM
- GI50 (MDA-MB-435): 1.89 µM
- TGI (MDA-MB-435): 6.37 µM
- GI50 (NCI/ADR-RES ovarian): 15.5 µM
- TGI (NCI/ADR-RES ovarian): 33.4 µM
- GI50 (TK-10 renal): 5.31 µM
- TGI (TK-10 renal): 16.2 µM
- GI50 (UACC-62 melanoma): 0.249 µM
- TGI (UACC-62 melanoma): 3.13 µM
- GI50 (M14 melanoma): 1.32 µM
- TGI (M14 melanoma): 5.83 µM
- GI50 (RPMI-8226 leukemia): < 0.0147 µM
- TGI (RPMI-8226 leukemia): 0.261 µM
- GI50 (MALME-3M melanoma): 3.37 µM
- TGI (MALME-3M melanoma): 7.52 µM
- GI50 (U251 CNS): 4.59 µM
- TGI (U251 CNS): 10.7 µM
- GI50 (T-47D breast): 5.14 µM
- TGI (T-47D breast): 16.3 µM
- GI50 (SNB-19 CNS): 4.7 µM
- TGI (SNB-19 CNS): 12.9 µM
- GI50 (CAKI-1 renal): 6.21 µM
- TGI (CAKI-1 renal): 19.2 µM
- GI50 (NCI-H522 lung): 0.148 µM
- TGI (NCI-H522 lung): 4.58 µM
- GI50 (HCT-15 colon): 6.49 µM
- TGI (HCT-15 colon): 20.1 µM
